Laboratory results taken from patent US4402978A, “Gastro-protecting activity of substituted derivatives of 4-phenyl-4-oxo-2-hydroxy-butanoic acid” (Roussel-Uclaf, priority 1980, dated 1983).

What was measured:
[1] = test system: ulcers in rats in the stomach region; assay: Determination of anti-ulcer activity (Shay method, ulcers induced in rats by pyloric ligation); type: in vivo; conditions: via the mouth, 16 hours after treatment
Excerpt: (1) Determination of anti-ulcer activity
The method used is described by Shay et al. in Gastroenterology, 5, 43, (1945).
The Shay method consists of inducing ulcers in rats in the stomach region by pyloric ligation.
The animals are anesthetized with ether. A longitudinal incision is made, 1 cm below the sternum; the glandular part of the stomach and the duodenum are exposed, and a ligature is placed several mm below the pylorus. The muscular sheet is left as it is and the skin is sutured with 2 clips.
The animals immediately receive the dispersive or the substance to be studied, via the mouth, in a volume of 0.5 ml/100 g and are kept without food or drink until sacrificed, 16 hours after the treatment, by carotid bleeding.
Before removal of the stomach, a ligature is placed above the cardia.
The gastric liquid is collected for measurement of pH.
The stomach is then opened along the major curvature, rinsed with physiological serum, and spread out on millimeter graph paper to be examined under a binocular magnifier.
The severity of the lesions, graded 0 to 4, is macroscopically evaluated for each stomach.
For each group of rats, the mean intensity of the ulcerations is determined, and the protection is calculated as the ratio of the mean index for the treated group to the mean index for the control group.
The pH values of the gastric liquid are likewise determined for the treated and control animals.

[2] = Determination of Acute Toxicity (oral LD50 in mice); conditions: mouse, in vivo
Protocol: (2) Determination of Acute Toxicity
The lethal dose LD50 of the derivatives of certain examples were evaluated after administration by the oral route in mice.

COc1ccc(C(=O)CC(O)C(=O)O)cc1OC (stereo not shown) [Example 1, 4-(3,4-dimethoxyphenyl)-4-oxo-2-hydroxy-butanoic acid]
Ulcerations, % of protection with respect to controls ([1]; 0.8 mg/kg): 27% | pH of gastric liquid, treated animals ([1]; 0.8 mg/kg): 3.4 | Ulcerations, % of protection with respect to controls ([1]; 4 mg/kg): 72% | pH of gastric liquid, treated animals ([1]; 4 mg/kg): 3.0 | Ulcerations, % of protection with respect to controls ([1]; 20 mg/kg): 72% | pH of gastric liquid, treated animals ([1]; 20 mg/kg): 2.3 | LD50 [2]: > 1000 mg/kg

O=C(CC(O)C(=O)O)c1ccc(Cl)cc1 (stereo not shown) [Example 2, 4-(4-chlorophenyl)-4-oxo-2-hydroxy-butanoic acid]
Ulcerations, % of protection with respect to controls ([1]; 4 mg/kg): 25% | pH of gastric liquid, treated animals ([1]; 4 mg/kg): 3.5 | Ulcerations, % of protection with respect to controls ([1]; 20 mg/kg): 72% | pH of gastric liquid, treated animals ([1]; 20 mg/kg): 3.0 | LD50 [2]: > 1000 mg/kg

O=C(CC(O)C(=O)O)c1ccc(Cl)c(Cl)c1 (stereo not shown) [Example 3, 4-(3,4-dichlorophenyl)-4-oxo-2-hydroxy-butanoic acid]
Ulcerations, % of protection with respect to controls ([1]; 20 mg/kg): 36% | pH of gastric liquid, treated animals ([1]; 20 mg/kg): 3.2 | Ulcerations, % of protection with respect to controls ([1]; 100 mg/kg): 91% | pH of gastric liquid, treated animals ([1]; 100 mg/kg): 4.2 | LD50 [2]: > 1000 mg/kg

O=C(CC(O)C(=O)O)c1ccc(Cl)cc1Cl (stereo not shown) [Example 4, 4-(2,4-dichlorophenyl)-4-oxo-2-hydroxy-butanoic acid]
Ulcerations, % of protection with respect to controls ([1]; 20 mg/kg): 9% | pH of gastric liquid, treated animals ([1]; 20 mg/kg): 2.9 | Ulcerations, % of protection with respect to controls ([1]; 100 mg/kg): 91% | pH of gastric liquid, treated animals ([1]; 100 mg/kg): 4.4 | LD50 [2]: > 1000 mg/kg

O=C(CC(O)C(=O)O)c1ccc(Br)cc1 (stereo not shown) [Example 5, 4-(4-bromophenyl)-4-oxo-2-hydroxy-butanoic acid]
Ulcerations, % of protection with respect to controls ([1]; 20 mg/kg): 40% | pH of gastric liquid, treated animals ([1]; 20 mg/kg): 3.1 | Ulcerations, % of protection with respect to controls ([1]; 100 mg/kg): 95% | pH of gastric liquid, treated animals ([1]; 100 mg/kg): 3.4 | LD50 [2]: > 1000 mg/kg

O=C(CC(O)C(=O)O)c1ccc([N+](=O)[O-])cc1 (stereo not shown) [Example 8, 4-(4-nitrophenyl)-4-oxo-2-hydroxy-butanoic acid]
Ulcerations, % of protection with respect to controls ([1]; 100 mg/kg): 49% | pH of gastric liquid, treated animals ([1]; 100 mg/kg): 3.0 | LD50 [2]: > 1000 mg/kg

COc1cc(OC)cc(C(=O)CC(O)C(=O)O)c1 (stereo not shown) [Example 11, 4-(3,5-dimethoxyphenyl)-4-oxo-2-hydroxy-butanoic acid]
Ulcerations, % of protection with respect to controls ([1]; 1 mg/kg): 53% | pH of gastric liquid, treated animals ([1]; 1 mg/kg): 1.9 | Ulcerations, % of protection with respect to controls ([1]; 4 mg/kg): 50% | pH of gastric liquid, treated animals ([1]; 4 mg/kg): 2.0 | Ulcerations, % of protection with respect to controls ([1]; 20 mg/kg): 60% | pH of gastric liquid, treated animals ([1]; 20 mg/kg): 2.0 | Ulcerations, % of protection with respect to controls ([1]; 100 mg/kg): 88% | pH of gastric liquid, treated animals ([1]; 100 mg/kg): 3.0 | LD50 [2]: > 1000 mg/kg

O=C(CC(O)C(=O)O)c1ccccc1[N+](=O)[O-] (stereo not shown) [Example 13, 4-(2-nitrophenyl)-4-oxo-2-hydroxy-butanoic acid]
LD50 [2]: > 1000 mg/kg
